Data set [1] can be described thus: Clearance in rat at 2 mg/kg, iv measured after 24 hrs by LC-MS/MS analysis. It counts as ADME, organism-based. The conditions noted are these: in vivo.
A short description of data set [2]: Volume of distribution at steady state in rat at 2 mg/kg, iv measured after 24 hrs by LC-MS/MS analysis. Format: ADME, organism-based. The conditions noted are these: in vivo, read-out: Vdss.
Data set [3] in a line: Half-life in rat at 10 mg/kg, po measured after 24 hrs by LC-MS/MS analysis. The conditions noted are these: in vivo. Format: ADME, organism-based.
For data set [4], the target named is T1, E3 ubiquitin-protein ligase RNF126/Serine/threonine-protein kinase TBK1 (Homo sapiens, UniProt Q9UHD2+Q9BV68). In words: Molecular glue activity at RNF126/TBK1 in HEK293T cells assessed as induction of TBK1 degradation incubated for 16 hrs by Western blot analysis. Format: cell-based. Background: A western blot detects proteins with antibodies after separation by electrophoresis.

Data set [5] has as its target T1, E3 ubiquitin-protein ligase RNF126/Serine/threonine-protein kinase TBK1. In words: Molecular glue activity at RNF126/TBK1 in human A549 cells assessed as induction of TBK1 degradation by measuring maximal efficacy at 10 to 1000 nM incubated for 16 hrs by Western blot analysis relative to control. The following applies: dose 10-1000 nM. Format: cell-based.
Target sequence in this assay (Q9BV68 2-311 partner limits assumed, one chain of several): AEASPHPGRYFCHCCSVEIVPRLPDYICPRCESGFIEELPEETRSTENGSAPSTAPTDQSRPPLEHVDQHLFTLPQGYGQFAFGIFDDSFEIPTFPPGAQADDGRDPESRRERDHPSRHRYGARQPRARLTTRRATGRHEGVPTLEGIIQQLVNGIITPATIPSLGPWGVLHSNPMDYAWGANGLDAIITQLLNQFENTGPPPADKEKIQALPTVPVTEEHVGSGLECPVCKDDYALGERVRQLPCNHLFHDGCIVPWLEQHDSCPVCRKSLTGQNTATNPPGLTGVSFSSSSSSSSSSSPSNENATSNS
The target is the same in data set [6]. In words: Molecular glue activity at RNF126/TBK1 in HEK293T cells assessed as induction of TBK1 degradation at 1 uM measured after 24 hrs by Western blot analysis. It counts as cell-based.
Target sequence in this assay (Q9BV68 2-311 partner limits assumed, one chain of several): as above
Data set [7] deals with T2, Serine/threonine-protein kinase TBK1 (Homo sapiens, UniProt Q9UHD2).
T2 sequence (Q9UHD2 whole entry): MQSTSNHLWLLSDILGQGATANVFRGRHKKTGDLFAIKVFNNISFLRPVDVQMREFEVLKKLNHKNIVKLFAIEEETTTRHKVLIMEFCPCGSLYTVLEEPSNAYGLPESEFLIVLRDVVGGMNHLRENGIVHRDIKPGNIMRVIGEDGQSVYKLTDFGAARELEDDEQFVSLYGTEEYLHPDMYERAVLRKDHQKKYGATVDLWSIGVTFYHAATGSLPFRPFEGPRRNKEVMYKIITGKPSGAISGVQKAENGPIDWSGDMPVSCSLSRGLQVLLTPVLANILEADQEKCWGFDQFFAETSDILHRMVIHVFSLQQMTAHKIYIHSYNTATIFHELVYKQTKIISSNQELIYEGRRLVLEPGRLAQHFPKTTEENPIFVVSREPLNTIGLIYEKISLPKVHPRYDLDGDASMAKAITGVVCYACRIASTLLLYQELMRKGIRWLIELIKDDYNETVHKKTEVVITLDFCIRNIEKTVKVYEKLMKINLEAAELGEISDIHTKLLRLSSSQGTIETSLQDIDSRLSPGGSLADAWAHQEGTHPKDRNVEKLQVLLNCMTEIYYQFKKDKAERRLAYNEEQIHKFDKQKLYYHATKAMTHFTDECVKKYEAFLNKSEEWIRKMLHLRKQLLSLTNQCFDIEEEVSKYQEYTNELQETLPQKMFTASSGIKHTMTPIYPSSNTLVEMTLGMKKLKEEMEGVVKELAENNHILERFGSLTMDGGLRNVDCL
In words: Inhibition of TBK1-dependent SEAP reporter gene expression in LPS-stimulated human THP1-Blue ISG cells incubated for 24 hrs by QUANTI-Blue reagent based analysis. It counts as cell-based. For orientation: In a reporter assay the amount or activity of a reporter protein is the signal.

Another data set has as its system Kidney. In words: Ex vivo inhibition of renal cystogenesis in wild type C57BL/6 mouse kidney assessed as suppression of 8-Br-cAMP-induced cyst development at 100 nM treated for 6 days by imaging analysis. It counts as functional, tissue-based. The following applies: time 6.0 day.
A further data set has as its system Mus musculus. Briefly: Anti-inflammatory activity in PKD1 knockout ADPKD (Pkd1 flox/flox; Ksp-Cre) C57BL/6 mouse model assessed as decrease in IFN-beta level in kidney at 5 mg/kg, SC administered from postnatal day 6 and measured on postnatal day 12 by RT-qPCR analysis. The following applies: time 7.0 day. Format: functional, organism-based. (Quantitative PCR measures a nucleic acid by following its amplification.)

Molecules are shown by their SMILES. The source made the active and inactive calls. No cut-off for these calls is given here.

`COc1ccc(C(=O)/C=C/C(=O)N2CCN(CC3CCN(Cc4cccc(Nc5ncc6ccn(CCCNC(=O)C7CCC7)c6n5)c4)CC3)CC2)cc1`: in [1], the clearance – broadly, a measure of how efficiently the substance is removed, as volume per time – worked out at 44.9 mL/min/kg. Besides, the Vd in [2] came out at 17.3 L/kg. Also, the half-life (as a rule, how long it takes for the measured level to halve) in [3] is 1.22 h. Besides, in data set [4], the Activity result is “Dose-dependent-effect” and the half-maximal degradation concentration (DC50) – broadly, the midpoint of the concentration-degradation curve – amounted to 351 nM. Also, in [5], the Emax (commonly the size of the effect at its maximum, as opposed to the concentration needed) came to 71.9%. For the same molecule, the Activity result in data set [6] is given as “Active; Maximal Tbk1 Degradation Observed”. Further, half-maximal inhibition in data set [7] (IC50) was put at 77.4 nM. In the data set on Kidney, the inhibition result was “Active”. In the data set with Mus musculus, the result was Active.

The values above are taken from ChEMBL document CHEMBL6182930, “Discovery of TBK1Molecular Glue Degraders as a Potential Strategy for the Treatment of Autosomal Dominant Polycystic Kidney Disease (ADPKD)” (J Med Chem, 2025).
